{"source": "paper PMC3914206", "key": {"panel of 442 kinases [1]": {"molecular_target": "T1, panel of 442 kinases (Homo sapiens, UniProt P31749)", "T1 construct": "purchased KINOMEscan", "type": "binding", "design": "KINOMEscan: ABL1(F317L)-phosphorylated / KINOMEscan: ABL1(H396P)-nonphosphorylated / KINOMEscan: ABL1(H396P)-phosphorylated / KINOMEscan: ABL1(M351T)-phosphorylated / KINOMEscan: ABL1(T315I)-phosphorylated / KINOMEscan: ABL1-nonphosphorylated / KINOMEscan: ABL1-phosphorylated / KINOMEscan: ACVR2A / KINOMEscan: ACVR2B / KINOMEscan: ADCK3 / KINOMEscan: ADCK4 / KINOMEscan: AKT1 / KINOMEscan: AKT3 / KINOMEscan: ALK / KINOMEscan: ARK5 / KINOMEscan: AURKA / KINOMEscan: AURKC / KINOMEscan: BIKE / KINOMEscan: BMPR1A / KINOMEscan: BMPR1B / KINOMEscan: BMX / KINOMEscan: BRK / KINOMEscan: BRSK1 / KINOMEscan: BRSK2 / KINOMEscan: CAMK1 / KINOMEscan: CAMK1D / KINOMEscan: CAMK1G / KINOMEscan: CAMK2A / KINOMEscan: CAMK2B / KINOMEscan: AAK1 / KINOMEscan: CAMK2D / KINOMEscan: CAMK2G / KINOMEscan: ABL1(F317I)-nonphosphorylated / KINOMEscan: ABL1(F317I)-phosphorylated / KINOMEscan: ABL1(F317L)-nonphosphorylated: unit: % Ctrl", "details": "Compound Concentration 10 µM", "excerpt": "(§1) We assessed the selectivity of members of this scaffold using the KINOMEscan methodology across a near comprehensive panel of 442 kinases [[18,27]]."}, "panel of 442 kinases [2]": {"molecular_target": "T2, panel of 442 kinases (Homo sapiens, UniProt Q8TDC3)", "T2 construct": "purchased KINOMEscan", "T2 sequence (Q8TDC3 1-778)": "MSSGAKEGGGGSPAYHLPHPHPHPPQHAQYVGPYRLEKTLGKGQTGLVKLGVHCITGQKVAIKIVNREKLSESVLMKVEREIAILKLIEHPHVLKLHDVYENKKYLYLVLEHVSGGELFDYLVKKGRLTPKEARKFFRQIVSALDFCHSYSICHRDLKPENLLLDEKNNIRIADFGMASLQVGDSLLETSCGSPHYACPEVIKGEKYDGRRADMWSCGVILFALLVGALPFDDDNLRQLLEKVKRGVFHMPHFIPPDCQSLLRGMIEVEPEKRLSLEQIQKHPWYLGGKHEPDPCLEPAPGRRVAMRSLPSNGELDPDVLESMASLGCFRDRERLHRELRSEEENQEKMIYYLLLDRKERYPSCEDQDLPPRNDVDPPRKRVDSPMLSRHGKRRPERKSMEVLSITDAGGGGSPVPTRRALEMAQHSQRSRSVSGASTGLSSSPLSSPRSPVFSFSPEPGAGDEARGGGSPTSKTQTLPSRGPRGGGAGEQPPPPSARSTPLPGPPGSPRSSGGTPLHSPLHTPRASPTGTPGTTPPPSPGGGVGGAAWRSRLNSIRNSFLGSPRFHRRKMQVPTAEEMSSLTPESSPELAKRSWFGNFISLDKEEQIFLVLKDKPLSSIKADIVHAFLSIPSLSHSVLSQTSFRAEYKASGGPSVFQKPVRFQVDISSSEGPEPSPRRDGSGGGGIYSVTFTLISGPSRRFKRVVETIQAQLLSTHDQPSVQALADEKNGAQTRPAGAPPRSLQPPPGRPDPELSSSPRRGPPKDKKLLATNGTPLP", "type": "binding", "design": "KINOMEscan: ABL1(F317L)-phosphorylated / KINOMEscan: ABL1(H396P)-nonphosphorylated / KINOMEscan: ABL1(H396P)-phosphorylated / KINOMEscan: ABL1(M351T)-phosphorylated / KINOMEscan: ABL1(T315I)-phosphorylated / KINOMEscan: ABL1-nonphosphorylated / KINOMEscan: ABL1-phosphorylated / KINOMEscan: ACVR2A / KINOMEscan: ACVR2B / KINOMEscan: ADCK3 / KINOMEscan: ADCK4 / KINOMEscan: AKT1 / KINOMEscan: AKT3 / KINOMEscan: ALK / KINOMEscan: ARK5 / KINOMEscan: AURKA / KINOMEscan: AURKC / KINOMEscan: BIKE / KINOMEscan: BMPR1A / KINOMEscan: BMPR1B / KINOMEscan: BMX / KINOMEscan: BRK / KINOMEscan: BRSK1 / KINOMEscan: BRSK2 / KINOMEscan: CAMK1 / KINOMEscan: CAMK1D / KINOMEscan: CAMK1G / KINOMEscan: CAMK2A / KINOMEscan: CAMK2B / KINOMEscan: AAK1 / KINOMEscan: CAMK2D / KINOMEscan: CAMK2G / KINOMEscan: ABL1(F317I)-nonphosphorylated / KINOMEscan: ABL1(F317I)-phosphorylated / KINOMEscan: ABL1(F317L)-nonphosphorylated: unit: % Ctrl", "details": "Compound Concentration 10 µM", "excerpt": "as §1"}}}
{"smiles": "COc1cc(C(=O)N2CCC(N3CCN(C)CC3)CC2)ccc1Nc1ncc2c(n1)N(C)c1ccccc1C(=O)N2C", "note": "[15 (LRRK2-IN-1)]", "values": [{"measurement": "KINOMEscan: AKT1", "setting": "panel of 442 kinases [1]", "value": 79}, {"measurement": "KINOMEscan: BRSK1", "setting": "panel of 442 kinases [2]", "value": 81}]}
{"smiles": "CCOc1cc(C(=O)N2CCC(N3CCN(C)CC3)CC2)ccc1Nc1ncc2c(n1)N(C1CCCC1)c1ccccc1C(=O)N2C", "note": "[Compound 26]", "values": [{"measurement": "KINOMEscan: AKT1", "setting": "panel of 442 kinases [1]", "value": 100}, {"measurement": "KINOMEscan: BRSK1", "setting": "panel of 442 kinases [2]", "value": 100}]}
{"smiles": "COc1cc(C(=O)N2CCC(N3CCN(C)CC3)CC2)ccc1Nc1ncc2c(n1)N1CCc3cccc(c31)C(=O)N2C", "note": "[Compound 24]", "values": [{"measurement": "KINOMEscan: AKT1", "setting": "panel of 442 kinases [1]", "value": 90}, {"measurement": "KINOMEscan: BRSK1", "setting": "panel of 442 kinases [2]", "value": 82}]}
{"smiles": "COc1cc(C(=O)N2CCC(N3CCN(C)CC3)CC2)ccc1Nc1ncc2c(n1)N(C1CCCC1)c1ccccc1C(=O)N2C", "note": "[Compound 25, 11-cyclopentyl-2-((2-methoxy-4-(4-(4-methylpiperazin-1-yl)piperidine-1-carbonyl)phenyl)amino)-5-methyl-5H-benzo[e]pyrimido[5,4-b][1,4]diazepin-6(11H)-one]", "values": [{"measurement": "KINOMEscan: AKT1", "setting": "panel of 442 kinases [1]", "value": 100}, {"measurement": "KINOMEscan: BRSK1", "setting": "panel of 442 kinases [2]", "value": 84}]}
